Legend:
[1] = Micelle size of Pluronic F-127 formulations by dynamic light scattering; assay type: physicochemical; conditions: Pluronic F-127 micelles, concentration 3·10^−6 M
Procedure: The size of obtained micelles for the compounds 3a,b was determined by the dynamic light scattering (DLS) method. The micelle size for compounds 3a,b was 17.53 nm and 14.69 nm, respectively, at concentrations of 3·10^−6 M (Figure 4a,b). It has previously been reported that a similar micelle size increased the efficiency and circulation of the encapsulated drug in the blood due to the small scale, which avoided the capture of nanoparticles by the reticular endothelial system.
NMR (^1H and ^13C) spectra of the test solutions in CDCl3 or (CD3OD) were recorded on a Bruker MSL-300 pulse Fourier transform spectrometer (Bruker, Billerica, MA, USA) at frequencies of 300.3 and 75.49 MHz, respectively, with internal deuterium stabilization. Tetramethylsilane was used as an external standard. IR spectra (4000–500 cm^–1) were recorded on Infralyum FT 02 Fourier spectrometer (Lumex Instruments Research and Production Company, Moscow, Russia) with a resolution of 1 cm^−1. Samples were prepared as KBr tablets. Dynamic light scattering was measured using Malvern Zetasizer Nano ZS (Malvern, United Kingdom). […] Mass spectra were recorded using an 1100 LCMSD liquid chromatograph (Agilent Technologies, Santa Clara, CA, USA) equipped with a mass spectrometric chemical ionization detector at atmospheric pressure (HIAD, APCI, ESI) and with a UV spectrophotometric detector (DAD). […]

Vero cells = assay: Vero cell viability, MTT test, 72 h; assay type: cell-based, African green monkey; conditions: MTT; for Viability % ±s.d.: +F127 (Pluronic F-127), Vero, 3 days
Procedure: Before testing antiviral activity, the effect of porphyrins dissolved in PBS and Pluronic F-127 on the viability of Vero cells was evaluated. Cells were incubated for 72 h using different concentrations of porphyrins (0.39–100 μM). Viability was assessed using the MTT test (Figure S13, Table S1, Supplementary Information). The viability of Vero cells depends on the porphyrins’ structure and formulation.
Cell viability was assessed by MTT reduction assay. Briefly, confluent monolayer Vero cells in 96-well plates (15000 cells/well) were incubated for 72 h with different concentrations of the compounds ranging from 0.39 µM to 100 µM in DMEM-1% FCS at 36.8 °C in 5% CO2 atmosphere. Next, cells were incubated for 1 h with 1.0 mg/mL of 3-(4,5-dimethylthiazol-2-y1)-2,5-diphenyltetrazolium bromide (MTT, PanEco, Moscow, Russia) at 36.8 °C, and then the solution was removed, and precipitated formazan was diluted in DMSO (PanEco, Moscow, Russia). The solution was read on a spectrophotometer at 540 nm. For each concentration, the average cell viability was calculated from the data of three experiments with three replicates each and was expressed as a percentage compared to the untreated cells (100%).
Table s1. Vero cell viability after exposure to 3a, 3b, TMEPyP compounds dissolved in PBS and Pluronic F-127. Different concen-
trations of compounds were applied to the cell monolayer and after incubation for 3 days, the number of living cells was calculated
in the MTT test. Each point represents the mean ± standard deviation of three experiments with […] each. n.d. –not done.
Compound Concentration, µM/L Viability % ±s.d.

With `O=C(CCCCC[n+]1ccccc1)Oc1ccc(-c2c3nc(c(-c4ccc(OC(=O)CCCCC[n+]5ccccc5)cc4)c4ccc([nH]4)c(-c4ccc(OC(=O)CCCCC[n+]5ccccc5)cc4)c4nc(c(-c5ccc(OC(=O)CCCCC[n+]6ccccc6)cc5)c5ccc2[nH]5)C=C4)C=C3)cc1` [3b, 5,10,15,20-tetrakis(4-(6-pyridyl-n-hexanoyl)oxyphenyl)porphyrin tetrabromide] the “micelle size (DLS)” value [1] was 14.69 nm, the “Viability % ±s.d.” value (Vero cells; 0.39 µM/L) was 97.6±6.9% and the “Viability % ±s.d.” value (Vero cells; 0.78 µM/L) was 81.3±10.8%. For the same compound, the “Viability % ±s.d.” value (Vero cells; 1.56 µM/L) was 82.7±19.5%, the “Viability % ±s.d.” value (Vero cells; 3.13 µM/L) was 79.6±9.6% and the “Viability % ±s.d.” value (Vero cells; 6.25 µM/L) was 63.4±8.1%. For the same compound, the “Viability % ±s.d.” value (Vero cells; 12.50 µM/L) was 67.7±11.5%, the “Viability % ±s.d.” value (Vero cells; 25 µM/L) was 58.4±4.4% and the “Viability % ±s.d.” value (Vero cells; 50 µM/L) was 41.3±2.7%. The “Viability % ±s.d.” value (Vero cells; 100 µM/L) was 25.0±1.9% and the CC50 (Vero cells; Pluronic F-127 (F127) micellar formulation, Vero cells, 72 h) was 27 µM.

From publication PMC7999199, “Novel Cationic Meso-Arylporphyrins and Their Antiviral Activity against HSV-1” (Pharmaceuticals, 2021)
